Test results reported in patent publication US12570642B2, “GLP-IR modulating compounds” (Gilead Sciences, Inc., priority 2021, dated 2026).

Biological target: GLP-1R (Homo sapiens, UniProt P43220)
Assay: GLP-1R Activation - cAMP Assay
Type: cell-based
Conditions: cAMP increase in CHO cells stably expressing GLP-1R; each compound run on one of the two cAMP assays (Assay 1 or Assay 2, not specified)
In short: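 cAMP rise read by HTRF after 30 min agonist exposure (10-point titration, 37 °C) in HBSS/20 mM Hepes/0.1% BSA, following 1 h pre-incubation. Cells: stable GLP-1R CHO line, 1,000/well, seeded overnight. Sigmoidal fit of response vs log concentration gives EC50.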

Chain of GLP-1R (P43220 24-463): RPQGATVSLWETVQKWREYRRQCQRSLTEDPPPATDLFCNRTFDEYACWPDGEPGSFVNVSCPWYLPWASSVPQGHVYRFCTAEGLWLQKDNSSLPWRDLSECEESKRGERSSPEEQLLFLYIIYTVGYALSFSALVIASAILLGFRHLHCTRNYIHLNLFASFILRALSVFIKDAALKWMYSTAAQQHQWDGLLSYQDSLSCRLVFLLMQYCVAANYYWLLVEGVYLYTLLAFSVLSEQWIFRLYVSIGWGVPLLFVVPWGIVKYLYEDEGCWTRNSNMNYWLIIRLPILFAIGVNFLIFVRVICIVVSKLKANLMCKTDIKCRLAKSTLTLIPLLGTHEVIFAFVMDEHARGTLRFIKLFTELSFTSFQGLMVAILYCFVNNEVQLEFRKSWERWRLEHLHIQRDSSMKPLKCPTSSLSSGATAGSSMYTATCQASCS

Row | SMILES | EC50 [nM]
1 | CC1(C)COCC1n1c(Cc2cc(F)c(-c3cccc(OCc4ccc(C(F)F)cc4F)n3)cc2F)nc2c(F)cc(C(=O)O)cc21 (stereo not shown) [Example 506, 2-(4-(6-((4-(difluoromethyl)-2-fluorobenzyl)oxy)pyridin-2-yl)-2,5-difluorobenzyl)-1-(4,4-dimethyltetrahydrofuran-3-yl)-4-fluoro-1H-benzo[d]imidazole-6-carboxylic acid] | 0.242
2 | COC[C@@]1(C)COCC1n1c(Cc2cc(F)c(-c3cccc(OCc4ccc(Cl)cc4F)n3)cc2F)nc2ccc(C(=O)O)cc21 (single isomer, unassigned) [Example 546] | 0.706
3 | O=C(O)c1ccc2nc(Cc3cc(F)c(-c4cccc(OCc5ccc(Cl)cc5F)n4)cc3F)n(C3COC4CC3C4)c2c1 (stereo in doubt) [Example 572, (R)-1-(2-oxabicyclo[3.1.1]heptan-4-yl)-2-(4-(6-((4-chloro-2-fluorobenzyl)oxy)pyridin-2-yl)-2,5-difluorobenzyl)-1H-benzo[d]imidazole-6-carboxylic acid] | 0.322
4 | CC1(C)COC[C@H]1n1c(Cc2cc(F)c(-c3cccc(OCc4cc(F)c(C#N)cc4F)n3)cc2F)nc2ccc(C(=O)O)cc21 [Example 487, (S)-2-(4-(6-((4-cyano-2,5-difluorobenzyl)oxy)pyridin-2-yl)-2,5-difluorobenzyl)-1-(4,4-dimethyltetrahydrofuran-3-yl)-1H-benzo[d]imidazole-6-carboxylic acid] | 0.159
5 | COCCn1c(Cc2c(F)cc(-c3ccc(F)c(OCc4cnc(-n5ccnn5)cc4Cl)n3)c(F)c2F)nc2c(F)cc(C(=O)O)cc21 [Example 213, 2-(4-(6-((4-chloro-6-(1H-1,2,3-triazol-1-yl)pyridin-3-yl)methoxy)-5-fluoropyridin-2-yl)-2,3,6-trifluorobenzyl)-4-fluoro-1-(2-methoxyethyl)-1H-benzo[d]imidazole-6-carboxylic acid] | 0.042
6 | CC1(C)COC[C@H]1n1c(Cc2cc(F)c(-c3cccc(OCc4c(F)cc(F)cc4F)n3)cc2F)nc2ccc(C(=O)O)cc21 [Example 458, (S)-2-(2,5-difluoro-4-(6-((2,4,6-trifluorobenzyl)oxy)pyridin-2-yl)benzyl)-1-(4,4-dimethyltetrahydrofuran-3-yl)-1H-benzo[d]imidazole-6-carboxylic acid] | 0.315
7 | CO[C@]1(C)COC[C@@H]1n1c(Cc2cc(F)c(-c3cccc(OCc4ccc(Cl)cc4F)n3)cc2F)nc2ccc(C(=O)O)cc21 (single isomer, unassigned) [Example 473] | 0.092
8 | CC1(C)COCC1n1c(Cc2cc(F)c(-c3ccnc(OCc4ccc(C(F)F)cc4F)n3)cc2Cl)nc2c(F)cc(C(=O)O)cc21 (stereo not shown) [Example 344, 2-(2-chloro-4-(2-((4-(difluoromethyl)-2-fluorobenzyl)oxy)pyrimidin-4-yl)-5-fluorobenzyl)-1-(4,4-dimethyltetrahydrofuran-3-yl)-4-fluoro-1H-benzo[d]imidazole-6-carboxylic acid] | 0.147
9 | COCCn1c(Cc2cc(F)c(-c3cccc(OCc4ncc(F)cc4F)n3)cc2F)nc2ccc(C(=O)O)cc21 [Example 31, 2-(4-(6-((3,5-difluoropyridin-2-yl)methoxy)pyridin-2-yl)-2,5-difluorobenzyl)-1-(2-methoxyethyl)-1H-benzo[d]imidazole-6-carboxylic Acid] | 30.4
10 | CC[C@@H]1OCC[C@H]1n1c(Cc2cc(F)c(-c3cccc(OCc4ccc(C#N)cc4F)n3)cc2F)nc2ccc(C(=O)O)cc21 [Example 197, 2-(4-(6-((4-cyano-2-fluorobenzyl)oxy)pyridin-2-yl)-2,5-difluorobenzyl)-1-((2S,3R)-2-ethyltetrahydrofuran-3-yl)-1H-benzo[d]imidazole-6-carboxylic acid] | 6.62
11 | CN(C)C(=O)[C@@H]1COC[C@@H]1n1c(Cc2cc(F)c(-c3cccc(OCc4ccc(C#N)cc4F)n3)cc2F)nc2ccc(C(=O)O)cc21 (racemic) [Example 76, 2-(4-(6-((4-cyano-2-fluorobenzyl)oxy)pyridin-2-yl)-2,5-difluorobenzyl)-1-((3R,4S)-4-(dimethylcarbamoyl)tetrahydrofuran-3-yl)-1H-benzo[d]imidazole-6-carboxylic Acid] | 100
12 | Cc1cc(Cc2nc3ccc(C(=O)O)cc3n2[C@@H]2COCC2(C)C)c(Cl)cc1-c1cccc(OCc2ccc(C#N)cc2)n1 [Example 134, (S)-2-(2-chloro-4-(6-((4-cyanobenzyl)oxy)pyridin-2-yl)-5-methylbenzyl)-1-(4,4-dimethyltetrahydrofuran-3-yl)-1H-benzo[d]imidazole-6-carboxylic Acid] | 0.077
13 | CC1(C)COC[C@H]1n1c(Cc2cc(F)c(-c3ccc(F)c(OCc4ccc(Cl)cc4)n3)cc2F)nc2c(F)cc(C(=O)O)cc21 [Example 228, (S)-2-(4-(6-((4-chlorobenzyl)oxy)-5-fluoropyridin-2-yl)-2,5-difluorobenzyl)-1-(4,4-dimethyltetrahydrofuran-3-yl)-4-fluoro-1H-benzo[d]imidazole-6-carboxylic acid] | 0.047
14 | COCCn1c(Cc2ccc(-c3ccc(F)c(OCc4cnc(-n5ccnn5)cc4Cl)n3)cc2F)nc2ccc(C(=O)O)cc21 [Example 155, 2-(4-(6-((4-chloro-6-(1H-1,2,3-triazol-1-yl)pyridin-3-yl)methoxy)-5-fluoropyridin-2-yl)-2-fluorobenzyl)-1-(2-methoxyethyl)-1H-benzo[d]imidazole-6-carboxylic Acid] | 0.416
15 | CC1(C)COC[C@H]1n1c(Cc2c(F)cc(-c3cccc(OCc4ccc(C#N)cc4)n3)c(F)c2F)nc2ccc(C(=O)O)cc21 [Example 245, (S)-2-(4-(6-((4-cyanobenzyl)oxy)pyridin-2-yl)-2,3,6-trifluorobenzyl)-1-(4,4-dimethyltetrahydrofuran-3-yl)-1H-benzo[d]imidazole-6-carboxylic acid] | 0.051
16 | CC1(C)COC[C@H]1n1c(Cc2cc(F)c(-c3cccc(OCc4c(F)cc(Cl)cc4F)n3)cc2F)nc2ccc(C(=O)O)cc21 [Example 453, (S)-2-(4-(6-((4-chloro-2,6-difluorobenzyl)oxy)pyridin-2-yl)-2,5-difluorobenzyl)-1-(4,4-dimethyltetrahydrofuran-3-yl)-1H-benzo[d]imidazole-6-carboxylic acid] | 0.527
17 | CC1(C)COC[C@H]1n1c(Cc2ccc(-c3ccc(F)c(OCc4ccc(-n5ccnn5)cc4F)n3)cc2F)nc2c(F)cc(C(=O)O)cc21 [Example 235, (S)-1-(4,4-dimethyltetrahydrofuran-3-yl)-4-fluoro-2-(2-fluoro-4-(5-fluoro-6-((2-fluoro-4-(1H-1,2,3-triazol-1-yl)benzyl)oxy)pyridin-2-yl)benzyl)-1H-benzo[d]imidazole-6-carboxylic acid] | 0.191
18 | CC(=O)NCc1cc(F)c(COc2cccc(-c3cc(F)c(Cc4nc5ccc(C(=O)O)cc5n4C[C@@H]4CCO4)cc3F)n2)cn1 [Example 147, (S)-2-(4-(6-((6-(acetamidomethyl)-4-fluoropyridin-3-yl)methoxy)pyridin-2-yl)-2,5-difluorobenzyl)-1-(oxetan-2-ylmethyl)-1H-benzo[d]imidazole-6-carboxylic Acid] | 0.233
19 | COCCn1c(Cc2cc(F)c(-c3cccc(OCc4ccc(Cl)cc4)n3)cc2F)nc2c(F)cc(C(=O)O)cc21 [Example 386, 2-(4-(6-((4-chlorobenzyl)oxy)pyridin-2-yl)-2,5-difluorobenzyl)-4-fluoro-1-(2-methoxyethyl)-1H-benzo[d]imidazole-6-carboxylic acid] | 0.093
